According to the METLIN SMRT retention time set (Domingo-Almenara et al. 2019):

Assay: gradient 5% acetonitrile 3 min, to 50% in 2 min, to 85% in 15 min, held 3 min, 100 µL/min
Conditions: column: Zorbax Extend-C18 2.1 x 50 mm; eluents: water / acetonitrile, 0.1% formic acid
Summary of the method: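 The system's dead and dwell volumes were 40 μL and 900 μL, with a Zorbax Extend-C18 column (2.1 × 50 mm, 1.8 μm) run at 100 μL/min in water and acetonitrile containing 0.1% formic acid each. Pure standards were analyzed in mixtures of ~100 molecules by HPLC–quadrupole time-of-flight mass spectrometry in positive and negative ionization mode. Retention time was assigned from computationally picked, manually inspected adduct peaks.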

RP-LC retention time [s] | Compound
1010 | Cc1nc2cc(-c3noc(-c4ccc(C#N)cc4)n3)ccc2o1
709 | O=C(c1cn2ccccc2n1)N1CCN(c2ccc(Cl)cc2)CC1
1090 | CCOc1ccc(-c2noc(Cc3nnc(-c4cccc(F)c4)o3)n2)cc1
643 | CN(CCc1noc(C2CN(Cc3cccc(C(F)(F)F)c3)C2)n1)S(C)(=O)=O
1120 | COc1cccc(-c2nc(-c3cccc(-c4ccnn4C)c3)no2)c1
1350 | Cc1ccc(Cl)cc1NC(=O)C1CCCN(c2nc3ccccc3nc2C(F)(F)F)C1 (stereo not given)
657 | COc1ccccc1NC(=O)NCC(c1cccnc1)c1c[nH]c2ccccc12 (stereo not given)
908 | CCC(=O)N(C1CCOCC1)C1CCN(S(=O)(=O)c2ccc(CC)cc2)CC1
758 | COc1ccc(OC)c(C(O)CN2CCN(c3cc(C)ccc3C)CC2)c1 (stereo not given)
867 | O=c1c2nc(-c3ccc(F)cc3)cn2ccn1-c1ccc(Cl)cc1
931 | CN(CCc1noc(COc2ccccc2F)n1)C(=O)CCc1ccccc1
723 | Cc1cc(C2CCCN2C(=O)Cc2ccccc2F)no1 (stereo not given)
746 | Cc1nc2ccn(Cc3ccco3)c(=O)c2cc1C(=O)N1CCC(C)CC1
883 | COc1ccccc1NC(=O)N1C[C@H](c2nc(-c3ccccc3)no2)[C@@H](C)C1
615 | CCNC(=O)c1nc2cccnc2n(C)c1=O
1140 | CCOc1ccc2cccc(NC(=O)c3ccc(S(=O)(=O)N(C)C)cc3)c2n1
983 | O=C(NC1CCCCCC1)C1CCCN(C(=O)Cc2cccc3ccccc23)C1 (stereo not given)
615 | Cc1cnc(C2CCC2)n1CCNS(=O)(=O)c1ccccc1
785 | CCC(C(=O)NCCc1ccccc1)n1cnc2nc3c(cc2c1=O)CCCC3 (stereo not given)
705 | CCCN1C(=O)NC2(CCN(C(=O)Nc3ccccc3C(F)(F)F)CC2)C1=O
756 | NC(=O)Cc1ccc2c(c1)[nH]c1ccccc12
773 | Cc1ccc(CNC(=O)N2CCC3(CC2)NC(=O)c2cccc(Cl)c2N3)cc1
623 | CCCc1cc(N2CCN(C(=O)c3ccc(OC)nc3)CC2)nc2nnc(CC)n12

RP-LC retention time [s] | Compound
678 | COc1ccc(C2(C(=O)NCc3ccc4c(c3)ncn4C(C)C)CC2)cc1
877 | COc1ccc(NC(=O)CSc2cc(N3CCN(c4ccccc4OC)CC3)ncn2)cc1
655 | CCN(CC)S(=O)(=O)c1ccc2c(c1)N(CC(=O)NCCc1cnc[nH]1)C(=O)C1CCCCN21 (stereo not given)
904 | CCCNC(=O)N1CCCC1c1nc(-c2cccc(Cl)c2)no1 (stereo not given)
753 | O=C(NCc1csc(C2CCN(C(=O)Cc3ccccc3Cl)CC2)n1)C1CCC1
858 | Cc1noc([C@@H]2CC(F)(F)CN2S(=O)(=O)c2ccccc2)n1
783 | CCCNC(=O)C1CCN(S(=O)(=O)c2cc(C(=O)N3CCCCCC3)cs2)CC1
670 | CC1=C(C(=O)N2CCOCC2)C(c2ccc(Br)cc2)C2=C(CCCC2=O)N1 (stereo not given)
681 | COc1ccc(C2(C(=O)N3CCC4(CC3)NCCc3c4[nH]c4ccccc34)CC2)cc1
836 | CCCc1ccc(S(=O)(=O)N2CCC3(CC2)NCCN=C3NCc2ccccc2OC)cc1
885 | O=C(CN1CCN(Cc2cccc(Cl)c2)C1=O)N1CCN(c2ccccc2)CC1
571 | O=C(CSc1nnc(CCN2CCOCC2)o1)Nc1ccc(F)c(Cl)c1
746 | COc1ccc(CNC(=O)Cn2c(=O)cc(-c3nc(C)no3)c3ccccc32)cc1OC
1210 | Cc1cc(C)cc(OCC(=O)Nc2nc(-c3ccccc3)cs2)c1
798 | COc1cc(NC(=O)Cn2c(=O)n(-c3ccc(F)cc3)c(=O)c3c2cc(C)n3C)cc(OC)c1
763 | O=C(NCc1ccco1)c1ccc(NC(=O)C2CCC2)cc1N1CCCCC1
1170 | CCOc1ccccc1CNC(=O)C1CCN(c2nccnc2Sc2cccc(C)c2)CC1
721 | CC(C)c1noc(-c2ccn3c(CC(=O)N4CCCCC4)nnc3c2)n1
645 | COc1ccc2c(C)c(CCC(=O)N3CCC(C(N)=O)CC3)c(=O)oc2c1
1110 | Cc1ccc(-c2nnc(Cc3nc(-c4cccc(F)c4)no3)o2)cc1F
976 | Cc1ccc(S(=O)(=O)N2C(=O)CCC2C(=O)Nc2cccc(C)c2C)cc1C (stereo not given)
755 | COc1ccc(C2NC(c3ccc(OC)c(OC)c3)C(C)C(=O)C2C)cc1OC (stereo not given)
672 | Cc1csc(-c2ccc(CNC(=O)c3cccnc3)cc2)n1

RP-LC retention time [s] | Compound
1000 | Cc1noc(C)c1-c1ccc(S(=O)(=O)Nc2cccc(Br)c2)cc1
572 | Cc1ccn2cc(C(=O)NCCN(C)C3CCCCC3)nc2c1
668 | CCOc1ccc(NCC(O)Cn2c3ccccc3n3c(=O)cc(C)c(C#N)c23)cc1 (stereo not given)
643 | COc1ccccc1C(=O)N1CCC(n2cnnc2-c2ccccc2)C1 (stereo not given)
713 | COc1ccc(NC(=O)C2CC(=O)N(c3n[nH]c4cccc(F)c34)C2)c(OC)c1 (stereo not given)
1080 | CCN1C(=O)c2cc(S(=O)(=O)Nc3ccc(C)cc3C)ccc2Oc2cccnc21
788 | CC1CCCN(C(=O)c2ccc(CN3CCN(Cc4ccc(F)cc4)C(=O)C3=O)cc2)C1 (stereo not given)
586 | CN(C)CCNC(=O)c1ccc(Nc2c(-c3ccccc3)nc3cnccn23)cc1
792 | CC(C)c1noc(-c2ccn3c(CC(=O)NC(C)c4ccc(F)cc4)nnc3c2)n1 (stereo not given)
612 | Cc1c(C(=O)N2CCN(C)CC2)cc(-c2ccccc2)n1C
766 | COC(=O)Nc1nc(CC(=O)Nc2ccc(OC(F)(F)F)cc2)cs1
807 | CCC1Oc2ccc(S(=O)(=O)N3CCC(C(=O)NCc4cccs4)CC3)cc2NC1=O (stereo not given)
732 | Cc1ccc(C(=O)C2=C(O)C(=O)N(c3ncccn3)C2c2cccc(Cl)c2)o1 (stereo not given)
628 | O=C(NC1CCN(C(=O)c2cn(-c3ccc(Cl)cc3)nn2)CC1)c1cccs1
765 | O=C(Nc1cnc(N2CCCC2)nc1)c1cccc(Cl)c1
1370 | CCOC(=O)c1c(C)oc2nc(C)nc(NCc3ccc(CC)cc3)c12
576 | OC1(c2ccccn2)CCOC2(CCN(Cc3cccc(Cl)c3F)CC2)C1 (stereo not given)
836 | Cc1ccc(Nc2c(-c3ccc(Cl)cc3)nc3ccc(C)cn23)cc1
842 | Cc1cc(C)c(S(=O)(=O)N2CCCC(C(=O)NC3CC3)C2)c(C)c1 (stereo not given)
795 | Cc1ccccc1Nc1c(-c2ccc(N3CCOCC3)cc2)nc2ccc(Br)cn12
777 | O=C(CSC1CCc2ccccc2NC1=O)Nc1ccccc1 (stereo not given)
698 | O=S(=O)(c1ccccc1)N1CCN(c2cnn3c(C4CC4)nnc3c2)CC1
826 | CCc1nnc(-c2ccc3ccn(CC(=O)Nc4ccccc4C)c3c2)o1

RP-LC retention time [s] | Compound
827 | COCc1nc(N2CCN(c3ccccc3F)CC2)ncc1C(=O)O
874 | Cc1nc(C(=O)NCc2ccc(F)cc2Cl)c(C)o1
759 | CCCC(=O)NCCn1c(=O)n(Cc2cccc(C)c2)c2cccnc21
771 | CCN1c2ccccc2C(=O)NC12CCN(C(=O)NC1CCCCC1)CC2
757 | CCc1noc([C@@H]2CC(F)(F)CN2C(=O)c2ccoc2)n1
770 | COc1cccc2cc(C(=O)NCCC(O)C(C)(C)C)oc12 (stereo not given)
628 | O=C(C1CCC1)N1CCC2(CC1)NCCc1c2[nH]c2ccccc12
944 | COc1ccccc1-c1noc(C2CCCN2C(=O)Nc2cccc(Br)c2)n1 (stereo not given)
743 | CCOc1ccc(CNC(=O)C2CCN(C(=O)C3Sc4ccccc4NC3=O)CC2)cc1 (stereo not given)
622 | O=C(CSc1ccc(N2CCCC(C(=O)NC3CC3)C2)nn1)NCc1ccc(F)cc1 (stereo not given)
876 | Cn1cc(C(=O)NCc2ccc(F)cc2F)c(S(=O)(=O)N2CCSCC2)n1
931 | O=C(C1CCCN(c2nnc(-n3cccc3)s2)C1)N1CCN(c2ccccc2)CC1 (stereo not given)
823 | COc1cc(=O)n2c(c1C(=O)Nc1ccc(Cl)c(Cl)c1)CCCC2
1010 | CCOc1ccccc1-c1nc(-c2cn(Cc3cccc(F)c3)nn2)no1
543 | COCC1(O)CCOC2(CCN(Cc3c(F)cccc3Cl)CC2)C1 (stereo not given)
1010 | CN(C(=O)Cc1nnc2cc(-c3nc(C4CC4)no3)ccn12)C1CCCCC1
1130 | CCCn1cc(C(=O)Nc2ccc(OC)cc2C)c(=O)c2ccc(C)nc21
817 | COc1ncc(C(=O)Nc2cc(C)cc(C)c2)c(C)n1
776 | CCOc1ccc(Nc2cc(C(=O)N3CCCC(C)C3)nc3ccc(C)cc23)cc1 (stereo not given)
787 | c1ccc(-n2nnc(-c3noc(-c4ccco4)n3)c2-c2ccncc2)cc1

Compound | RP-LC retention time [s]
COc1cc([C@@H]2c3cc4c(cc3[C@@H](O)[C@H]3COC(=O)[C@H]23)OCO4)cc(OC)c1O | 680
